Experimental data published in patent US20250213665A1, “METHODS FOR INHIBITING TRAINED IMMUNITY WITH NANOBIOLOGIC COMPOSITIONS” (Icahn School of Medicine at Mount Sinai, priority 2017, published 2025).

Assay: Recovery and hydrolysis of the (pro-)drugs in nanobiologics
Format: physicochemical
Conditions: 4° C. in PBS
Experimental: From 10 mg/ml stock solutions in chloroform, 1-palmitoyl-2-oleoyl-sn-glycero-3-phosphocholine (POPC, 250 μL), 1-palmitoyl-2-hydroxy-sn-glycero-3-phosphocholine (PHPC, 65 μL), cholesterol (15 μL), tricaprylin (1000 μL) and (pro-)drug (65 μL), were combined in a 20 ml vial and dried under vacuum. The resulting film was redissolved in a acetonitrile:methanol mixture (95%: 5%, 3 mL total volume). Separately, a solution of ApoA-I protein in PBS (0.1 mg/ml) was prepared. Using a microfluidic set-up, both solutions were simultaneously injected into a herringbone mixer, with a flow rate of 0.75 ml/min for the lipid solution and a rate of 6 ml/min for the ApoA-I solution. The obtained solution was concentrated by centrifugal filtration using a […] Vivaspin tube at 4000 rpm to obtain a volume of 5 mL. […]
(Pro-)drug recovery and hydrolysis were determined using the following procedure: an aliquot (200 μL) of the particle solution was dried under vacuum, acetonitrile (600 μL) was added and the suspension was sonicated for 20 minutes. The suspension was centrifuged to precipitate any solids and the remaining solution was analyzed using HPLC; except for the malonate derivatives which were analyzed using SFC-MS, and Dimethylmalonate which was analyzed by GC-MS.

hydrolysis of the (pro-)drugs in the nanobiologics over time: hydrolysis was observed
SMILES: CCCCCCCCCCCCCCCCCC(=O)O[C@@H]1CC[C@@H](C[C@@H](C)[C@@H]2CC(=O)[C@H](C)/C=C(\C)[C@@H](O)[C@@H](OC)C(=O)[C@H](C)C[C@H](C)/C=C/C=C/C=C(\C)[C@@H](OC)C[C@@H]3CC[C@@H](C)[C@@](O)(O3)C(=O)C(=O)N3CCCC[C@H]3C(=O)O2)C[C@H]1OC [Cis-Rapamycin]
